Laboratory results as given in ChEMBL document CHEMBL1140179, “Rhabdastrellins A-F, isomalabaricane triterpenes from the marine sponge Rhabdastrella aff. distincta” (J Nat Prod, 2008).
In brackets after ≈: the same amount, converted by molar mass.

System: HL-60
Test: Cytotoxicity against human HL60 cells
Format: functional, cell-based

| Structure (SMILES) | IC50 [mg/L] |
| --- | --- |
| C/C(C(=O)/C=C/C(C)=C/C=C/C(C)(C)O)=C1/C(=O)C[C@H]2[C@@]3(C)CC[C@H](O)[C@](C)(CO)[C@@H]3CC[C@]12C [RHABDASTRELLIN D] | > 10 |
| COC(=O)/C(C)=C/C=C/C(C)=C/C=C/C(C)=C1\C(=O)C[C@H]2[C@@]3(C)CC[C@H](O)C(C)(C)[C@@H]3CC[C@]12C [RHABDASTRELLIN F] | > 10 |
| CC(/C=C/C=C(C)/C=C/C(O)C(C)(C)O)=C1/C(=O)C[C@H]2[C@@]3(C)CC[C@H](O)[C@](C)(CO)[C@@H]3CC[C@]12C (stereo partly specified) [RHABDASTRELLIN B] | > 10 |
| C\C(=C/C=C/C(C)=C1/C(=O)C[C@H]2[C@@]3(C)CC[C@H](O)[C@](C)(CO)[C@@H]3CC[C@]12C)c1ccc(C)c(=O)o1 [RHABDASTRELLIN A] | 4.2 (≈ 8.74 µM) |
| CC(/C=C/C(O)C(C)(C)O)=C\C=C\C(C)=C1\C(=O)C[C@H]2[C@@]3(C)CC[C@H](O)[C@](C)(CO)[C@@H]3CC[C@]12C (stereo partly specified) [RHABDASTRELLIN C] | > 10 |
| COC(=O)/C(C)=C/C=C/C(C)=C/C=C/C(C)=C1/C(=O)C[C@H]2[C@@]3(C)CC[C@H](O)C(C)(C)[C@@H]3CC[C@]12C [RHABDASTRELLIN E] | > 10 |
